{"source": "patent US20260049075A1", "about": "“CYTOTOXIC IMIDAZO[1,2-A]PYRIDINE COMPOUNDS AND THEIR USE IN THERAPY” (MyricX Pharma Limited, priority 2022, published 2026)", "molecules": {"B1": {"name": "ifinatamab-DXd (conjugate, chains of the INN, looked up)", "VH": "QVQLVQSGAEVKKPGSSVKVSCKASGYTFTNYVMHWVRQAPGQGLEWMGYINPYNDDVKYNEKFKGRVTITADESTSTAYMELSSLRSEDTAVYYCARWGYYGSPLYYFDYWGQGTLVTVSS", "VL": "EIVLTQSPATLSLSPGERATLSCRASSRLIYMHWYQQKPGQAPRPLIYATSNLASGIPARFSGSGSGTDFTLTISSLEPEDFAVYYCQQWNSNPPTFGQGTKVEIK", "modifications": "deruxtecan (DXd) payload"}}, "key": {"[1]": {"molecular_target": "T1, human NMT1 (HsNMT1) (Homo sapiens, UniProt P30419)", "T1 sequence (P30419 1-496)": "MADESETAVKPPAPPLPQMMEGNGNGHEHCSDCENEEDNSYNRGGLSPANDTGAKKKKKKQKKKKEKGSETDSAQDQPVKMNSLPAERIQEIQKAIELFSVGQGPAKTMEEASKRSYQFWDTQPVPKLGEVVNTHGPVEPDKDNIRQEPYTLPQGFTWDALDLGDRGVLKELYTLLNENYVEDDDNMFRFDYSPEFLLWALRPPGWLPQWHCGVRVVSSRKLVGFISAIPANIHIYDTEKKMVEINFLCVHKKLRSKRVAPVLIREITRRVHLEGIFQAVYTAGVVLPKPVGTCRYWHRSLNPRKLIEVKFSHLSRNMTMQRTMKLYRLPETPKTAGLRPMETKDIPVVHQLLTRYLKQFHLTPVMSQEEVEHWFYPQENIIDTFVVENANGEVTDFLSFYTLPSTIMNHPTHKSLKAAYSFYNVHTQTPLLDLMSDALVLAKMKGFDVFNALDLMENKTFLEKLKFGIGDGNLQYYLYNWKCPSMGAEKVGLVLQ", "test": "HsNMT1 sensitive fluorescence-based assay (CoA detection with CPM)", "format": "biochemical"}, "[2]": {"system": "DOHH-2 tumor cells", "test": "Subcutaneous xenograft DOHH-2 Lymphoma Model", "format": "in vivo, mouse", "conditions": "CB17/SCID mice", "method": "The in vivo efficacy of certain Example compounds was assessed in a subcutaneous xenograft DOHH-2 Lymphoma Model using 10 female 6-8 week old CB17/SCID Mice. Each mouse was inoculated subcutaneously at the right front region with DOHH-2 tumor cells (5×10^6) in 0.1 ml of PBS mixed with matrigel (1:1 PBS:matrigel) for tumor development. The test compound administration started once the mean tumor size reached approximately 100-150 mm^3. Compounds were administered either IP (vehicle 10 mM sodium phosphate+0.2% Tween-80 (pH7.4) or orally (vehicle 15 Na2HPO4 buffer (10 mM) (pH 4.5)+0.2% tween 80). Tumor volumes were measured in two dimensions using a caliper, and the volume expressed in mm^3 using the formula: V=(L×W×W)/2, where V is tumor volume, L is tumor length (the longest tumor dimension) and W is tumor width (the longest tumor dimension perpendicular to L). Mice were dosed with Example 21 orally (12.5 or 25 mg/kg) once a day for 9 consecutive days (FIG. 3). Example 5 was dosed intraperitoneally (7 or 20 mg/kg) in a cycle consisting of administration QD for three days followed by a three day no-dosing period followed by QD dosing for a further three days (FIG. 4). Example 12 was dosed intraperitoneally (0.7 or 2 mg/kg) in a cycle consisting of administration QD for three days followed by a three day no-dosing period followed by QD dosing for a further three days (FIG. 5). In a separate study Example 12 was dosed at […] in a cycle consisting of administration QD for two days followed by either four or six day no-dosing period, and this cycle was repeated three times (FIG. 6).\nThe protocol and any amendment(s) or procedures involving the care and use of animals in this study were reviewed and approved by the Institutional Animal Care and Use Committee (IACUC) of CrownBio prior to execution. During the study, the care and use of animals was conducted in accordance with the regulations of the Association for Assessment and Accreditation of Laboratory Animal Care (AAALAC)."}, "[3]": {"system": "BT474 breast cancer cells", "test": "Orthotopic breast cancer xenograft model (BT474), tumour volume", "format": "in vivo, mouse", "conditions": "2.0 mg/kg IV, 2 days dosing then 5 day holiday; stopped at day 13", "experimental": "NOD/SCID mice were implanted with estrogen pellets (17β-estradiol, 60 day release, 0.36 mg) subcutaneously in the right flank one day before the tumour inoculation. On day −8 each mouse was then injected in the right mammary fat pad with 1×10^7 viable BT474 breast cancer cells resuspended in 0.2 mL of Phosphate Buffered Saline mixed with matrigel (1:1). Mice were assigned to treatment groups when tumour volumes averaged 149.78 mm^3 on study day 0. […] The study was terminated on Study Day 35. […] Each group was comprised of 10 mice. Tumour volumes in mice were measured three times per week and tumour volume was calculated using the formula 0.5 (L×W^2). […] Statistical analyses were carried out on tumour readings for Groups 1, 2, 3, 4 and 5 up to Study Day 23 (after this point >50% of the animals within one of the study groups were lost; Group 2) using two-way ANOVA, or a Mixed-Effects model was fitted when values were missing from groups (PRISM GraphPad Software Inc.). Statistical analysis of Group 6 was conducted until day 12 (at this point the study was terminated due to the significant loss of observed body weight). Using a ROUT outlier analysis in GraphPad Prism, one mouse in Group 5 was identified as an outlier across all timepoints (at the 5% confidence level) and has therefore been excluded from analysis. […]"}, "[4]": {"test": "Body weight in BT474 xenograft study", "format": "in vivo, mouse", "conditions": "2 mg/kg IV, 2 days dosing then 5 day holiday; terminated early", "method": "During the study, body weights were measured three times weekly for all animals. Animals were given Diet Gel for the entire duration on the study."}, "[5]": {"system": "LNCaP tumour cells", "test": "LNCaP prostate cancer xenograft model, tumour volume", "format": "in vivo, mouse", "conditions": "for Day 28 tumour volume (mm^3, mean ± SEM) / Tumour growth inhibition (TGI, %): IV, Q7D (x3); for Day 28 tumour volume (mm^3, mean ± SEM): NOD SCID mice; for Tumour growth inhibition (TGI, %): day 28", "text": "A total of 84 male NOD SCID mice aged 5-8 weeks and weighing 25-30 g were used for the study."}, "[6]": {"system": "VcaP tumour cells", "test": "VcaP prostate cancer xenograft model, tumour volume", "format": "in vivo, mouse", "conditions": "for ΔTGI (Study Day 17): CB17/SCID mice", "description": "All mice received two doses of test agent, on Study Day 1 and Study Day 8. The study was terminated on Study Day 30."}, "[7]": {"system": "JIMT-1 tumour cells", "test": "JIMT-1 breast cancer xenograft model, tumour volume", "format": "in vivo, mouse", "method": "80 mice were assigned to 8 treatment groups when tumour volumes averaged ˜160.66 mm^3 on Study Day 0. Dosing commenced the following day and all animals were dosed intravenously with ADC Example 3, sacituzumab govitecan or unconjugated sacituzumab. The study was terminated on the Study Day 60."}, "[8]": {"conditions": "intraperitoneal dosing, Example 5 7 or 20 mg/kg, Example 12 0.7 or 2 mg/kg, QD cycles"}}}
{"molecule": "CNCc1cnc2ccc(-c3ccc(F)c(F)c3OCCc3c(C(O)C(C)(C)C)nn(C)c3C)cn12", "note": "(single isomer, unassigned) [Example 12, 1-(4-(2-(2,3-difluoro-6-(3-((methylamino)methyl)imidazo[1,2-a]pyridin-6-yl)phenoxy)ethyl)-1,5-dimethyl-1H-pyrazol-3-yl)-2,2-dimethylpropan-1-ol]", "values": [{"measurement": "IC50", "setting": "[1]", "result": 2.1, "unit": "nM"}, {"measurement": "tumour volume compared to vehicle", "setting": "[2]; [8]", "result": "significant reduction in tumour volume or reduced growth in tumour volume"}, {"measurement": "tumour size", "setting": "[3]", "result": "reduced tumour size"}, {"measurement": "body weights", "setting": "[4]", "result": "decreased significantly"}]}
{"molecule": "CNCc1cnc2ccc(-c3ccc(F)cc3OCCc3c(C(C)O)nn(C)c3C)cn12", "note": "(stereo not shown) [Example 1, 1-{4-[2-(5-fluoro-2-{3-[(methylamino)methyl]imidazo[1,2-a]pyridin-6-yl}phenoxy)ethyl]-1,5-dimethyl-1H-pyrazol-3-yl}ethan-1-ol]", "values": [{"measurement": "IC50", "setting": "[1]", "result": 2.2, "unit": "nM"}]}
{"molecule": "CNCc1cnc2ccc(-c3ccc(F)c(F)c3OCCc3c(C(C)O)nn(C)c3C)cn12", "note": "(stereo not shown) [Example 5, 1-{4-[2-(2,3-difluoro-6-{3-[(methylamino)methyl]imidazo[1,2-a]pyridin-6-yl}phenoxy)ethyl]-1,5-dimethyl-1H-pyrazol-3-yl}ethan-1-ol]", "values": [{"measurement": "IC50", "setting": "[1]", "result": 2.2, "unit": "nM"}, {"measurement": "tumour volume compared to vehicle", "setting": "[2]; [8]", "result": "significant reduction in tumour volume or reduced growth in tumour volume"}]}
{"molecule": "Cc1c(CCOc2cc(F)ccc2-c2ccc3ncc(CCN)n3c2)c(C(C)O)nn1C", "note": "(stereo not shown) [Example 7, 1-(4-(2-(2-(3-(2-aminoethyl)imidazo[1,2-a]pyridin-6-yl)-5-fluorophenoxy)ethyl)-1,5-dimethyl-1H-pyrazol-3-yl)ethan-1-ol]", "values": [{"measurement": "IC50", "setting": "[1]", "result": 9, "unit": "nM"}]}
{"molecule": "Cc1c(CCOc2c(-c3ccc4ncc(CN)n4c3)ccc(F)c2F)c(C(O)C(C)(C)C)nn1C", "note": "(stereo not shown) [Example 17, 1-(4-(2-(6-(3-(aminomethyl)imidazo[1,2-a]pyridin-6-yl)-2,3-difluorophenoxy)ethyl)-1,5-dimethyl-1H-pyrazol-3-yl)-2,2-dimethylpropan-1-ol]", "values": [{"measurement": "IC50", "setting": "[1]", "result": 2, "unit": "nM"}]}
{"molecule": "Cc1c(CCOc2c(-c3ccc4ncc(CN)n4c3)ccc(F)c2F)c(C(C)(C)O)nn1C", "note": "[Example 20, 2-[4-(2-{6-[3-(aminomethyl)imidazo[1,2-a]pyridin-6-yl]-2,3-difluorophenoxy}ethyl)-1,5-dimethyl-1H-pyrazol-3-yl]propan-2-ol]", "values": [{"measurement": "IC50", "setting": "[1]", "result": 2, "unit": "nM"}]}
{"molecule": "CNCc1cnc2ccc(-c3ccc(F)c(F)c3OCCc3c(C(C)(C)O)nn(C)c3C)cn12", "note": "[Example 21, 2-(4-(2-(2,3-difluoro-6-(3-((methylamino)methyl)imidazo[1,2-a]pyridin-6-yl)phenoxy)ethyl)-1,5-dimethyl-1H-pyrazol-3-yl)propan-2-ol]", "values": [{"measurement": "tumour volume compared to vehicle", "setting": "[2]; oral dosing 12.5 or 25 mg/kg once a day for 9 days", "result": "significant reduction in tumour volume or reduced growth in tumour volume"}]}
{"molecule": "CCNCc1cnc2ccc(-c3ccc(F)cc3OCCc3c(C(C)(C)O)nn(C)c3C)cn12", "note": "[Example 22, 2-{4-[2-(2-{3-[(ethylamino)methyl]imidazo[1,2-a]pyridin-6-yl}-5-fluorophenoxy)ethyl]-1,5-dimethyl-1H-pyrazol-3-yl}propan-2-ol]", "values": [{"measurement": "IC50", "setting": "[1]", "result": 3, "unit": "nM"}]}
{"molecule": "CNCc1cnc2ccc(-c3ccc(F)c(F)c3OCCc3c(C(O)C(C)C)nn(C)c3C)cn12", "note": "(stereo not shown) [Example 25, 1-{4-[2-(2,3-difluoro-6-{3-[(methylamino)methyl]imidazo[1,2-a]pyridin-6-yl}phenoxy)ethyl]-1,5-dimethyl-1H-pyrazol-3-yl}-2-methylpropan-1-ol]", "values": [{"measurement": "IC50", "setting": "[1]", "result": 2, "unit": "nM"}]}
{"molecule": "ifinatamab: antibody binding CD276 (B7-H3); heavy chain SEQ ID NO: 6, light chain SEQ ID NO: 5", "values": [{"measurement": "effect on LNCaP tumour volume compared to vehicle", "setting": "[5]; 5 mg/kg", "result": "no significant effect"}, {"measurement": "Day 28 tumour volume (mm^3, mean ± SEM)", "setting": "[5]; 5 mg/kg", "result": "551.4 ± 73.1", "unit": "mm^3"}, {"measurement": "Tumour growth inhibition (TGI, %)", "setting": "[5]; 5 mg/kg", "result": 30.6, "unit": "%"}, {"measurement": "effect on LNCaP tumour volume compared to vehicle", "setting": "[5]; 10 mg/kg", "result": "no significant effect"}, {"measurement": "Day 28 tumour volume (mm^3, mean ± SEM)", "setting": "[5]; 10 mg/kg", "result": "666.56 ± 103.2", "unit": "mm^3"}, {"measurement": "Tumour growth inhibition (TGI, %)", "setting": "[5]; 10 mg/kg", "result": 13.0, "unit": "%"}, {"measurement": "tumour volume compared to vehicle alone", "setting": "[6]; 2.5 mg/kg", "result": "no significant difference"}, {"measurement": "ΔTGI (Study Day 17)", "setting": "[6]; 2.5 mg/kg IV QW x 2 weeks", "result": 8.47, "unit": "%"}, {"measurement": "tumour volume compared to vehicle alone", "setting": "[6]; 5 mg/kg", "result": "no significant difference"}, {"measurement": "ΔTGI (Study Day 17)", "setting": "[6]; 5 mg/kg IV QW x 2 weeks", "result": 12.44, "unit": "%"}]}
{"molecule": "sacituzumab", "values": [{"measurement": "tumour volume compared to vehicle alone", "setting": "[7]; 2.5 mg/kg", "result": "no significant difference"}, {"measurement": "tumour volume compared to vehicle alone", "setting": "[7]; 5 mg/kg", "result": "significant decrease in tumour volume"}]}
{"molecule": "sacituzumab govitecan [reference compound]", "values": [{"measurement": "tumour volume compared to vehicle alone", "setting": "[7]; 2.5 mg/kg", "result": "significant decrease in tumour volume"}, {"measurement": "tumour volume compared to vehicle alone", "setting": "[7]; 5 mg/kg", "result": "significant decrease in tumour volume"}]}
{"molecule": "B1", "values": [{"measurement": "effect on LNCaP tumour volume compared to vehicle", "setting": "[5]; 5 mg/kg", "result": "slowed the growth of LNCaP tumours to a lesser extent"}, {"measurement": "Day 28 tumour volume (mm^3, mean ± SEM)", "setting": "[5]; 5 mg/kg", "result": "364.6 ± 51.7", "unit": "mm^3"}, {"measurement": "Tumour growth inhibition (TGI, %)", "setting": "[5]; 5 mg/kg", "result": 58.8, "unit": "%"}, {"measurement": "effect on LNCaP tumour volume compared to vehicle", "setting": "[5]; 10 mg/kg", "result": "significantly reduced the mean volume"}, {"measurement": "Day 28 tumour volume (mm^3, mean ± SEM)", "setting": "[5]; 10 mg/kg", "result": "259.5 ± 50.3", "unit": "mm^3"}, {"measurement": "Tumour growth inhibition (TGI, %)", "setting": "[5]; 10 mg/kg", "result": 75.0, "unit": "%"}, {"measurement": "tumour volume compared to vehicle alone", "setting": "[6]; 2.5 mg/kg", "result": "no significant difference"}, {"measurement": "ΔTGI (Study Day 17)", "setting": "[6]; 2.5 mg/kg IV QW x 2 weeks", "result": 5.24, "unit": "%"}, {"measurement": "tumour volume compared to vehicle alone", "setting": "[6]; 5 mg/kg", "result": "significantly higher tumour volume"}, {"measurement": "ΔTGI (Study Day 17)", "setting": "[6]; 5 mg/kg IV QW x 2 weeks", "result": 2.86, "unit": "%"}]}
